We go through ten compounds from patent US8614201B2 (Janssen Pharmaceutica NV, priority 2009, dated 2013).

This assay has as its target Human TRPA1 (Homo sapiens, UniProt O75762). The assay is described as follows: Alternative TRPA1 Ca2+ fluorometry assay (hTRPA1/TREx-HEK293 cells, Fluo-4, FDSS 6000). Type of assay: cell-based. More on the design: expressed in transfected cells. Conditions: Fluo-4-AM, agonist 6,11-dihydro-5H-dibenzo[b,e]azepine-10-carboxylic acid methyl ester 25 nM, procedure used for Examples 184, 190 to 192, 194 to 316. The protocol: In alternative embodiments, the assay was performed using the following procedure for Examples 184, 190 to 192, and 194 to 316:
The human TRPA1 gene was cloned into the pT-Rex-Dest30 inducible vector and stably transfected in T-Rex™-293 cells (Invitrogen, Merelbeke, Belgium). This tetracycline inducible hTRPA1 expression system was used in order to prevent CA^2+ overload in the cultured cells due to sustained TRPA1 expression. hTRPA1/TREx-HEK293 cells (referred to as jTRPA1 cells in the following text) were maintained under standard sterile cell culture conditions. The culture medium for the jTRPA1-HEK cells was DMEN (Gibco BRL, Invitrogen, Merelbeke, Belgium) supplemented with 5 g/l gengticin (Gibco), 5 mL/l blasticidin (Invitorgen), 14.6 g/l L-Glutamine (200 mMl; Gibco), 5 g/l penicillin/streptomycin (5.10-6 IU/I, Gibco), 5.5 g/l pyruvic acid (Gibco) and 10% foetal calf serum (Hyclone, Logan Utah, USA).
For Ca^2+ fluorometry experiments, hTRPA1-HEK cells were resuspended in HBSS seeding medium: HBSS (with CaCl2 and MgCl2: Gibco) supplemented with 14.6 g/l L-Glutamine (200 mM; Gibco), 5 g/l penicillin/streptomycin (5.10-6 IU/l. Gibco), 5.5 g/l pyruvic acid (Gibco) and 10% foetal calf serum (heat inactivated for 30 minutes at 56° C.; Hyclone, Logan Utah, USA). The cells were seeded in poly-D-lysine-coated 384-well round bottom polypropylene plates (Costar Corning, Data Packaging, Cambridge Mass., USA) at 12000 cells/well. Fifty ng/ml tetracycline was added to induce the hTRPA1 expression 24 h before the experiment.
The cells were loaded with 5 mg/l Fluo-4-AM (Molecular Probes, Invitorgen, Merelbeke, Belgium) dissolved in HBSS seeding medium supplemented with 0.7 g/l Probenecid (Sigma) and incubated for 1 h at 37° C. and subsequently at 20° C. for 1 to 2 h. The fluorescence was measured in the FDSS 6000 imaging based plate reader (Hamamutsu Photonics K.K., Hamamutsu City, Japan). The excitation wavelength was 488 nm and the emission wavelength 540 nm. After a control period of 12 seconds the inventive compounds were added and the Ca^2+ signal was measured within 14 minutes after application. Finally, a TRPA1 agonist, 6,11-dihydro-5H-dibenzo[b,e]azepine-10-carboxylic acid methyl ester, was added at a final concentration of 25 nM. The emission ratio was calculated by dividing the emission signal (Em540) by the first EM540 signal of the control period to compensate for the background fluorescence. […] For intracellular Ca^2+ measurements, a compound stock solution (10 to 100 mM) was further diluted in DMSO in order to obtain a final 1% DMSO concentration in the extracellular solution.

Sequence of Human TRPA1 (O75762 whole entry): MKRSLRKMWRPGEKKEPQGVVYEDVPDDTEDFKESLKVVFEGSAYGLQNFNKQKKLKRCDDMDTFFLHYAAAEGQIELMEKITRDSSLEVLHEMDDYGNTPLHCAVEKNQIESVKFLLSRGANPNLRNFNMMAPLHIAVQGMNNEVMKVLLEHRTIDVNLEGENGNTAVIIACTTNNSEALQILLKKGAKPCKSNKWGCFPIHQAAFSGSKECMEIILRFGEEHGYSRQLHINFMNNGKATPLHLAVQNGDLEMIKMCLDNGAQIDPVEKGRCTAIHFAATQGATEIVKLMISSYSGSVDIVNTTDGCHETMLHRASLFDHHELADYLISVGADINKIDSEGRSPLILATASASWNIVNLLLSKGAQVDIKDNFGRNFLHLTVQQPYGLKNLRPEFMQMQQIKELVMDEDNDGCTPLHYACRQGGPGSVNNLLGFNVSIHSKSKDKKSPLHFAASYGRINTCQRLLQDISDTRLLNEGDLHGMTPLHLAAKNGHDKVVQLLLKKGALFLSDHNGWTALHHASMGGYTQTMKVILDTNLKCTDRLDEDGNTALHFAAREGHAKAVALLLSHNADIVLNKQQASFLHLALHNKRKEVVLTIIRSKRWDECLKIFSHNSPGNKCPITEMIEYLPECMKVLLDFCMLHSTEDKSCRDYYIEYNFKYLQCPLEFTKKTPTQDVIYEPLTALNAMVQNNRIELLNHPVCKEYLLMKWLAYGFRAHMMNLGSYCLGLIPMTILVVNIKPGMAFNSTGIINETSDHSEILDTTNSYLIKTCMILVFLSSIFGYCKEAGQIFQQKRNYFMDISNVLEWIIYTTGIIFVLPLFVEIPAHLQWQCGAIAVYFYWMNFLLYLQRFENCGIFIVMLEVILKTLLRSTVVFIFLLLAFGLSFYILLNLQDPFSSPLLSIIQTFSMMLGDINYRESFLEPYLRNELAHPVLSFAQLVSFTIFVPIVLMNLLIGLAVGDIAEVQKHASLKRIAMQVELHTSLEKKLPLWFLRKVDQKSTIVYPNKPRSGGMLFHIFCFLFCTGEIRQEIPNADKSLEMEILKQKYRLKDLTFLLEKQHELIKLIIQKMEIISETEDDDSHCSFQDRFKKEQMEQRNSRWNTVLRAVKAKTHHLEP

Compound `CCCCNc1nc(CNC(=O)[C@@H]2CCCN2S(=O)(=O)c2ccc(F)cc2)cc(-c2ccc3c(c2)OCO3)n1` [Example 202, 1-(4-Fluoro-benzenesulfonyl)-pyrrolidine-2S-carboxylic acid (6-benzo[1,3]dioxol-5-yl-2-butylamino-pyrimidin-4-ylmethyl)-amide] registered an IC50 of around 2400 nM.

As for `O=C(NCc1cc(-c2ccc3c(c2)OCO3)nc(NCCc2ccccn2)n1)[C@@H]1CCCN1S(=O)(=O)c1ccc(F)cc1` [Example 203, 1-(4-Fluoro-benzenesulfonyl)-pyrrolidine-2S-carboxylic acid [6-benzo[1,3]dioxol-5-yl-2-(2-pyridin-2-yl-ethylamino)-pyrimidin-4-ylmethyl]-amide], the half-inhibitory concentration (IC50) was around 6460 nM.

In turn, `O=C(NCc1cc(-c2ccc3c(c2)OCO3)nc(NC2CCCC2)n1)[C@@H]1CCCN1S(=O)(=O)c1ccc(F)cc1` [Example 204, 1-(4-Fluoro-benzenesulfonyl)-pyrrolidine-2S-carboxylic acid (6-benzo[1,3]dioxol-5-yl-2-cyclopentylamino-pyrimidin-4-ylmethyl)-amide] displayed an IC50 of around 2690 nM.

Compound `CCOC(=O)C1CCN(c2nc(CNC(=O)[C@@H]3CCCN3S(=O)(=O)c3ccc(F)cc3)cc(-c3ccc4c(c3)OCO4)n2)CC1` [Example 205, 1-[4-Benzo[1,3]dioxol-5-yl-6-({[1-(4-fluoro-benzenesulfonyl)-pyrrolidine-2S-carbonyl]-amino}-methyl)-pyrimidin-2-yl]-piperidine-4-carboxylic acid ethyl ester] showed a half-inhibitory concentration (IC50) of around 1780 nM.

For `O=C(NCc1cc(-c2ccc3c(c2)OCO3)nc(N2CCN(c3ccccn3)CC2)n1)[C@@H]1CCCN1S(=O)(=O)c1ccc(F)cc1` [Example 206, 1-(4-Fluoro-benzenesulfonyl)-pyrrolidine-2S-carboxylic acid [6-benzo[1,3]dioxol-5-yl-2-(4-pyridin-2-yl-piperazin-1-yl)-pyrimidin-4-ylmethyl]-amide], the IC50 stood at 4470 nM.

In turn, `O=C(NCc1cc(-c2ccc3c(c2)OCO3)nc(N2CCOCC2)n1)[C@@H]1CCCN1S(=O)(=O)c1ccc(F)cc1` [Example 207, 1-(4-Fluoro-benzenesulfonyl)-pyrrolidine-2S-carboxylic acid (6-benzo[1,3]dioxol-5-yl-2-morpholin-4-yl-pyrimidin-4-ylmethyl)-amide] registered an IC50 of 9120 nM. This IC50 lies about 2-fold higher than the previous one.

`O=C(NCc1cc(-c2ccc3c(c2)OCO3)nc(N2CCc3ccccc3C2)n1)[C@@H]1CCCN1S(=O)(=O)c1ccc(F)cc1` [Example 208, 1-(4-Fluoro-benzenesulfonyl)-pyrrolidine-2S-carboxylic acid [6-benzo[1,3]dioxol-5-yl-2-(3,4-dihydro-1H-isoquinolin-2-yl)-pyrimidin-4-ylmethyl]-amide]: the IC50 amounted to 2290 nM.

`C#CCNc1nc(CNC(=O)[C@@H]2CCCN2S(=O)(=O)c2ccc(F)cc2)cc(-c2ccc(Br)cc2)n1` [Example 209, 1-(4-Fluoro-benzenesulfonyl)-pyrrolidine-2S-carboxylic acid [6-(4-bromo-phenyl)-2-prop-2-ynylamino-pyrimidin-4-ylmethyl]-amide] showed an IC50 of 1000 nM.

`O=C(NCc1cc(-c2ccc(Br)cc2)nc(N[C@@H](CO)Cc2ccccc2)n1)[C@@H]1CCCN1S(=O)(=O)c1ccc(F)cc1` [Example 210, 1-(4-Fluoro-benzenesulfonyl)-pyrrolidine-2S-carboxylic acid [6-(4-bromo-phenyl)-2-(1S-hydroxymethyl-2-phenyl-ethylamino)-pyrimidin-4-ylmethyl]-amide] registered an IC50 of 4570 nM. Against the preceding compound, the IC50 is about 4.6-fold higher.

`O=C(NCc1cc(-c2ccc(Br)cc2)nc(NC2CCCC2)n1)[C@@H]1CCCN1S(=O)(=O)c1ccc(F)cc1` [Example 211, 1-(4-Fluoro-benzenesulfonyl)-pyrrolidine-2S-carboxylic acid [6-(4-bromo-phenyl)-2-cyclopentylamino-pyrimidin-4-ylmethyl]-amide] came in with an IC50 of around 1620 nM.

The term IC50 denotes the concentration that inhibits the measured activity by half. Lower therefore signals inhibition by little substance.
